Source: article PMC6273138, “Inhibitory Effects of Aschantin on Cytochrome P450 and Uridine 5′-diphospho-glucuronosyltransferase Enzyme Activities in Human Liver Microsomes” (Molecules, 2016)

How the values were obtained:
UGT2B7 = target: T1, UGT2B7 (Homo sapiens, UniProt P16662); test: UGT2B7-catalyzed naloxone 3-β-D-glucuronidation inhibition in pooled human liver microsomes; assay type: in vitro ADME
T1 construct: using pooled human liver microsomes incubated with the cocktail of UGT substrates; tissue Corning Life Sciences 452161; host or cells: pooled human liver microsomes
T1 sequence (P16662 24-529): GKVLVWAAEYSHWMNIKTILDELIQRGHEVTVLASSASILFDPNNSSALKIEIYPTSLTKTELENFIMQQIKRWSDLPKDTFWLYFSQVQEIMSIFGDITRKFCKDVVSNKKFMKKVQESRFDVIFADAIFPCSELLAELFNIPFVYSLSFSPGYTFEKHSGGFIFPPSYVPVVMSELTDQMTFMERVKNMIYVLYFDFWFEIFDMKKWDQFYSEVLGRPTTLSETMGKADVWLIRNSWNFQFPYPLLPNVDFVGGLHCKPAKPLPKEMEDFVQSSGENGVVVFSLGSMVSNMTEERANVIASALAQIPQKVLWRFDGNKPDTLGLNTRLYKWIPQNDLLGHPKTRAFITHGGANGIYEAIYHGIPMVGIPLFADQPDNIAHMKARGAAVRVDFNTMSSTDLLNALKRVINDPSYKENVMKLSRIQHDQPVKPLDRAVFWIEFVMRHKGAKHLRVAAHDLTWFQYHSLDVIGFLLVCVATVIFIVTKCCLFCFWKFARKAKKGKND
Protocol: The extents of aschantin on UGT1A1, UGT1A3, UGT1A4, UGT1A6, UGT1A9, and UGT2B7 were evaluated by LC-MS/MS, using pooled human liver microsomes incubated with the cocktail of UGT substrates. The method was modified from that of Joo et al..
The metabolites formed from the six UGT cocktail substrates were simultaneously measured using the LC-MS/MS method. […] The mass spectrometer was equipped with an ESI source and was operated in both positive and negative ion modes. […] Each metabolite was quantified via SRM in the negative ion (chenodeoxycholic acid 24-acyl-β-glucuronide, 567.2 > 391.0; mycophenolic acid glucuronide, 495.2 > 318.9; propofol glucuronide, 353.3 > 177.1) and positive ion (SN-38 glucuronide, 569.0 > 393.0; trifluoperazine glucuronide, 584.2 > 408.1; N-acetylserotonin-β-D-glucuronide, 395.2 > 219.0; naloxone 3-β-D-glucuronide, 504.0 > 310.0; meloxicam, 352.0 > 115.1) modes.

CYP2C8 = target: T2, CYP2C8 (Homo sapiens, UniProt P10632); test: CYP2C8-catalyzed amodiaquine N-de-ethylase inhibition in pooled human liver microsomes; details: for IC50: CYP2C8 amodiaquine N-de-ethylase, 2.0 µM amodiaquine
T2 sequence (P10632 1-490): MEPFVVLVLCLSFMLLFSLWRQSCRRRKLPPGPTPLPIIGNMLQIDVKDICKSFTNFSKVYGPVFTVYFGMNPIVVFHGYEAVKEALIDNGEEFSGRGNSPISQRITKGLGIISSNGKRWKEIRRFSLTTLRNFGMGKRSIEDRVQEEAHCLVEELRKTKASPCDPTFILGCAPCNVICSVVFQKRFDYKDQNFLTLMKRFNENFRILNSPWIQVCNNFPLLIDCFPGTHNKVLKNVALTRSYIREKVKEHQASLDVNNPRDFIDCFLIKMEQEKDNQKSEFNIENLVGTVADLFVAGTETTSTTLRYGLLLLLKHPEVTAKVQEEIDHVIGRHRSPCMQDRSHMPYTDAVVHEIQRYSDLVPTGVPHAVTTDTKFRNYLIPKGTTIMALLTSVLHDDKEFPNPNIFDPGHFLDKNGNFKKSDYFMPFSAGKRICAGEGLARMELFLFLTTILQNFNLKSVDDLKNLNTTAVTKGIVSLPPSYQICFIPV

CYP2C19 = CYP2C19 (Homo sapiens, UniProt P33261); test: Mechanism-based (time- and concentration-dependent) inactivation of CYP2C19 in human liver microsomes; assay type: in vitro ADME; details: CYP2C19-mediated [S]-mephenytoin 4′-hydroxylation
Protocol: The microsomes (1 mg/mL) were pre-incubated with various concentrations of aschantin in 50 mM potassium phosphate buffer (pH 7.4) in the presence of NADPH. Aliquots (10 µL) of the incubated mixtures were withdrawn at 5, 10, 15, and 20 min after incubation commenced and added to other tubes containing the CYP substrates (2 µM amodiaquine for CYP2C8, 10 µM diclofenac for CYP2C9, 100 µM [S]-mephenytoin for CYP2C19, or 2 µM midazolam for CYP3A4), 1 mM NADPH, 50 mM potassium phosphate buffer (pH 7.4), and 10 mM MgCl2, in 90 µL reaction mixtures. […] Aliquots (5 µL) of the diluted supernatants were analyzed by LC-MS/MS, as described above.

Sequence of CYP2C19 (P33261 whole entry): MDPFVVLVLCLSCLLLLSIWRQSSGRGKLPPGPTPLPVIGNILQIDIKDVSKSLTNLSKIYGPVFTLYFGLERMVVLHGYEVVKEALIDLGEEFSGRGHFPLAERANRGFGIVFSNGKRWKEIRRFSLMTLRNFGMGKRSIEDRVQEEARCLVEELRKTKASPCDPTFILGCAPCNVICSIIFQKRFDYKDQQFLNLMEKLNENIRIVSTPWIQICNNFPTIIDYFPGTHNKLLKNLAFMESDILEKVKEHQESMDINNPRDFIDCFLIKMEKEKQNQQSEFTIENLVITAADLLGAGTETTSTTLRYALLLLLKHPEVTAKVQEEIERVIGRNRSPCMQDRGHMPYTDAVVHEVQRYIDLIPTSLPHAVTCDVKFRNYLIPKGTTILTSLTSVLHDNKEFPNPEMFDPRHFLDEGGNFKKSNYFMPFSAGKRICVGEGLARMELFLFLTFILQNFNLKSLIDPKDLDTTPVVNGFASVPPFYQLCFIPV

COc1cc([C@H]2OC[C@H]3[C@@H]2CO[C@@H]3c2ccc3c(c2)OCO3)cc(OC)c1OC [Aschantin]
IC50 (UGT2B7; UGT2B7-catalyzed naloxone 3-β-D-glucuronidation, 1 µM naloxone, pooled human liver microsomes): > 200 µM
inhibition of UGT2B7-catalyzed naloxone 3-β-D-glucuronidation (UGT2B7; aschantin at 200 µM, human liver microsomes): not inhibited
IC50 (CYP2C8; IC50 No Pre-incubation, pooled human liver microsomes, no pre-incubation): 27.8 µM
IC50 (CYP2C8; IC50 With Pre-incubation, 30 min pre-incubation with microsomes and NADPH): 5.3 µM
IC50 shift at 0.5 h (CYP2C8; human, pooled human liver microsomes, pH 7.4, probe amodiaquine (2.0 µM), N-de-ethylation): > 2.5
Ki (CYP2C19; read-out: Ki (apparent)): 5.8 µM
kinact (CYP2C19; pH 7.4, probe [S]-mephenytoin (100 µM)): 0.0008 s⁻¹
